These are literature values, as cited in US5798310A, “Glyphosate compositions and their use” (Monsanto Europe S.A., priority 1995, dated 1998).

The structures appear in SMILES notation.

The conditions of this data set: literature.

Regarding `N.N.O=S(=O)(O)O` [ammonium sulphate], the “effect on herbicidal activity of glyphosate” value is listed as “further enhance the herbicidal activity”.

For the compound `N#CS` [ammonium thiocyanate], the “effect on herbicidal activity of glyphosate” value was “further enhance the herbicidal activity”.
